# In PubChem BioAssay (NCI):
#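 How tested: cells in 96-well plates exposed to compound for 48 hours at five concentrations. Here, GI50 denotes the concentration required for 50% inhibition of growth. TGI marks complete inhibition of growth.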
# What was measured:
# Assay in all cases: growth of human tumour cells (NCI), 48 h
# MDA-MB-231 breast = tested on: MDA-MB-231 breast
# A498 renal = tested on: A498 renal
# SK-MEL-2 melanoma = tested on: SK-MEL-2 melanoma
# NCI-H460 lung = tested on: NCI-H460 lung
# UACC-62 melanoma = tested on: UACC-62 melanoma
# HT29 colon = tested on: HT29 colon
# SNB-75 CNS = tested on: SNB-75 CNS
# 786-0 renal = tested on: 786-0 renal
# HCT-116 colon = tested on: HCT-116 colon
# HCC-2998 colon = tested on: HCC-2998 colon
# HL-60(TB) leukemia = tested on: HL-60(TB) leukemia
# SK-OV-3 ovarian = tested on: SK-OV-3 ovarian
# DU-145 prostate = tested on: DU-145 prostate
# NCI-H23 lung = tested on: NCI-H23 lung
# OVCAR-8 ovarian = tested on: OVCAR-8 ovarian
# COLO 205 colon = tested on: COLO 205 colon
# HCT-15 colon = tested on: HCT-15 colon
# TK-10 renal = tested on: TK-10 renal
# SW-620 colon = tested on: SW-620 colon
# IGROV1 ovarian = tested on: IGROV1 ovarian
# CAKI-1 renal = tested on: CAKI-1 renal
# MDA-MB-435 = tested on: MDA-MB-435
# K-562 leukemia = tested on: K-562 leukemia
# BT-549 breast = tested on: BT-549 breast
# NCI-H522 lung = tested on: NCI-H522 lung
# SK-MEL-5 melanoma = tested on: SK-MEL-5 melanoma
# NCI-H226 lung = tested on: NCI-H226 lung
# HOP-92 NSCLC = tested on: HOP-92 NSCLC
# HOP-62 NSCLC = tested on: HOP-62 NSCLC
# M14 melanoma = tested on: M14 melanoma
# SN12C renal = tested on: SN12C renal
# SK-MEL-28 melanoma = tested on: SK-MEL-28 melanoma
# SF-539 CNS = tested on: SF-539 CNS
# ACHN renal = tested on: ACHN renal
# T-47D breast = tested on: T-47D breast
# UACC-257 melanoma = tested on: UACC-257 melanoma
# MOLT-4 leukemia = tested on: MOLT-4 leukemia
# UO-31 renal = tested on: UO-31 renal
# OVCAR-3 ovarian = tested on: OVCAR-3 ovarian
# KM12 colon = tested on: KM12 colon
# SR leukemia = tested on: SR leukemia
# OVCAR-5 ovarian = tested on: OVCAR-5 ovarian
# HS 578T breast = tested on: HS 578T breast
# OVCAR-4 ovarian = tested on: OVCAR-4 ovarian
# RPMI-8226 leukemia = tested on: RPMI-8226 leukemia
# NCI/ADR-RES ovarian = tested on: NCI/ADR-RES ovarian
# SF-295 CNS = tested on: SF-295 CNS
# U251 CNS = tested on: U251 CNS
# MCF7 breast = tested on: MCF7 breast
# A549 NSCLC = tested on: A549 NSCLC
# RXF 393 renal = tested on: RXF 393 renal
# EKVX NSCLC = tested on: EKVX NSCLC
# SF-268 CNS = tested on: SF-268 CNS
# PC-3 prostate = tested on: PC-3 prostate
# SNB-19 CNS = tested on: SNB-19 CNS
# LOX IMVI melanoma = tested on: LOX IMVI melanoma
# MALME-3M melanoma = tested on: MALME-3M melanoma
# CCRF-CEM leukemia = tested on: CCRF-CEM leukemia
structure (smiles),measurement,setting,value
O=c1oc2ccc(Br)cc2c(=O)n1-c1ccc(Br)cc1F,GI50,MDA-MB-231 breast,551 nM
same,TGI,MDA-MB-231 breast,4810 nM
same,GI50,A498 renal,245 nM
same,TGI,A498 renal,774 nM
same,GI50,SK-MEL-2 melanoma,371 nM
same,TGI,SK-MEL-2 melanoma,1880 nM
same,GI50,NCI-H460 lung,511 nM
same,TGI,NCI-H460 lung,11100 nM
same,GI50,UACC-62 melanoma,223 nM
same,TGI,UACC-62 melanoma,772 nM
same,GI50,HT29 colon,3090 nM
same,TGI,HT29 colon,12700 nM
same,GI50,SNB-75 CNS,289 nM
same,TGI,SNB-75 CNS,2450 nM
same,GI50,786-0 renal,2060 nM
same,TGI,786-0 renal,4910 nM
same,GI50,HCT-116 colon,555 nM
same,TGI,HCT-116 colon,2100 nM
same,GI50,HCC-2998 colon,2470 nM
same,TGI,HCC-2998 colon,8040 nM
same,GI50,HL-60(TB) leukemia,538 nM
same,TGI,HL-60(TB) leukemia,2530 nM
same,GI50,SK-OV-3 ovarian,560 nM
same,TGI,SK-OV-3 ovarian,4970 nM
same,GI50,DU-145 prostate,1140 nM
same,TGI,DU-145 prostate,21400 nM
same,GI50,NCI-H23 lung,369 nM
same,TGI,NCI-H23 lung,2650 nM
same,GI50,OVCAR-8 ovarian,1220 nM
same,TGI,OVCAR-8 ovarian,9140 nM
same,GI50,COLO 205 colon,3720 nM
same,TGI,COLO 205 colon,14000 nM
same,GI50,HCT-15 colon,733 nM
same,TGI,HCT-15 colon,7020 nM
same,GI50,TK-10 renal,2860 nM
same,TGI,TK-10 renal,12800 nM
same,GI50,SW-620 colon,1220 nM
same,TGI,SW-620 colon,11200 nM
same,GI50,IGROV1 ovarian,337 nM
same,TGI,IGROV1 ovarian,11900 nM
same,GI50,CAKI-1 renal,507 nM
same,TGI,CAKI-1 renal,3930 nM
same,GI50,MDA-MB-435,640 nM
same,TGI,MDA-MB-435,8870 nM
same,GI50,K-562 leukemia,465 nM
same,TGI,K-562 leukemia,> 100000 nM
same,GI50,BT-549 breast,452 nM
same,TGI,BT-549 breast,2200 nM
same,GI50,NCI-H522 lung,351 nM
same,TGI,NCI-H522 lung,2920 nM
same,GI50,SK-MEL-5 melanoma,269 nM
same,TGI,SK-MEL-5 melanoma,853 nM
same,GI50,NCI-H226 lung,1260 nM
same,TGI,NCI-H226 lung,4720 nM
same,GI50,HOP-92 NSCLC,191 nM
same,TGI,HOP-92 NSCLC,683 nM
same,GI50,HOP-62 NSCLC,1350 nM
same,TGI,HOP-62 NSCLC,4790 nM
same,GI50,M14 melanoma,816 nM
same,TGI,M14 melanoma,3590 nM
same,GI50,SN12C renal,458 nM
same,TGI,SN12C renal,3620 nM
same,GI50,SK-MEL-28 melanoma,392 nM
same,TGI,SK-MEL-28 melanoma,1950 nM
same,GI50,SF-539 CNS,501 nM
same,TGI,SF-539 CNS,3540 nM
same,GI50,ACHN renal,933 nM
same,TGI,ACHN renal,8460 nM
same,GI50,T-47D breast,341 nM
same,TGI,T-47D breast,3840 nM
same,GI50,UACC-257 melanoma,640 nM
same,TGI,UACC-257 melanoma,3760 nM
same,GI50,MOLT-4 leukemia,1310 nM
same,TGI,MOLT-4 leukemia,4160 nM
same,GI50,UO-31 renal,442 nM
same,TGI,UO-31 renal,2480 nM
same,GI50,OVCAR-3 ovarian,477 nM
same,TGI,OVCAR-3 ovarian,6620 nM
same,GI50,KM12 colon,2060 nM
same,TGI,KM12 colon,4930 nM
same,GI50,SR leukemia,712 nM
same,TGI,SR leukemia,6880 nM
same,GI50,OVCAR-5 ovarian,3100 nM
same,TGI,OVCAR-5 ovarian,48100 nM
same,GI50,HS 578T breast,380 nM
same,TGI,HS 578T breast,3790 nM
same,GI50,OVCAR-4 ovarian,539 nM
same,TGI,OVCAR-4 ovarian,> 100000 nM
same,GI50,RPMI-8226 leukemia,264 nM
same,TGI,RPMI-8226 leukemia,1060 nM
same,GI50,NCI/ADR-RES ovarian,553 nM
same,TGI,NCI/ADR-RES ovarian,4330 nM
same,GI50,SF-295 CNS,1490 nM
same,TGI,SF-295 CNS,3290 nM
same,GI50,U251 CNS,725 nM
same,TGI,U251 CNS,9820 nM
same,GI50,MCF7 breast,1070 nM
same,TGI,MCF7 breast,8170 nM
same,GI50,A549 NSCLC,2050 nM
same,TGI,A549 NSCLC,> 35500 nM
same,GI50,RXF 393 renal,680 nM
same,TGI,RXF 393 renal,3730 nM
same,GI50,EKVX NSCLC,1510 nM
same,TGI,EKVX NSCLC,8240 nM
same,GI50,SF-268 CNS,688 nM
same,TGI,SF-268 CNS,7100 nM
same,GI50,PC-3 prostate,864 nM
same,TGI,PC-3 prostate,6770 nM
same,GI50,SNB-19 CNS,378 nM
same,TGI,SNB-19 CNS,46700 nM
same,GI50,LOX IMVI melanoma,469 nM
same,TGI,LOX IMVI melanoma,2540 nM
same,GI50,MALME-3M melanoma,436 nM
same,TGI,MALME-3M melanoma,2550 nM
same,GI50,CCRF-CEM leukemia,1000 nM
same,TGI,CCRF-CEM leukemia,4950 nM
